Data as given in PMC2923446 (Virology, 2009).
No end group written: not given here.

What was measured:
[1] = system: Vaccinia virus; settings: 1 h
[2] = system: HeLa or Vero cells; settings: ref Akkarawongsa et al., 2006; cited from earlier work
[3] = system: mouse corneas; settings: applied at a concentration of 6.1 mM; ref Akkarawongsa et al., 2006; cited from earlier work
[4] = system: recombinant vaccinia virus vMJ343; settings: 1 h
[5] = system: HeLa cells; assay: Cytotoxicity after low pH wash; type: cell-based; settings: PBS pH 7 or 5, 150 μM EB 1 hr 37°C, n = 6
[6] = system: HeLa cells; settings: concentrations as high as 100 μM; ref Akkarawongsa et al., 2006; cited from earlier work
[7] = system: vMJ343; settings: 1 h
[8] = system: Vero cells; settings: concentrations as high as 100 μM; ref Akkarawongsa et al., 2006; cited from earlier work

| Sequence | EC50 [1] [µM] | CC50 (50% cytotoxic concentration) [2] [µM] | Cytotoxic effects on mouse corneas [3] | EC50 [4] [µM] | Toxicity of low pH treatment and subsequent EB exposure [5] | Cytotoxicity to HeLa cells [6] | EC50 [7] [µM] | Cytotoxicity to Vero cells [8] |
| --- | --- | --- | --- | --- | --- | --- | --- | --- |
| RRKKLAALPLVLAAPLAVLA [EBX, reference compound] | 150 | >100 | – | – | – | – | – | – |
| RRKKAAVALLPAVLLALLAP [EB] | 15 | >100 | no cytotoxic effects | 45 | not toxic to the cells | not cytotoxic | ~45 | not cytotoxic |
